Reference: the CheMixHub viscosity set

Test: xn = mol fraction of the nth substance listed

ClC(Cl)Cl + Cc1ccccc1
298.15 K
Settings | viscosity [mPa·s]
101 kPa, x1 = 0.1361 | 0.5653
101 kPa, x1 = 0.2872 | 0.5753
101 kPa, x1 = 0.4067 | 0.5833
101 kPa, x1 = 0.554 | 0.5861
101 kPa, x1 = 0.6211 | 0.584
101 kPa, x1 = 0.6656 | 0.58
101 kPa, x1 = 0.8806 | 0.5593
101.33 kPa, x1 = 0.0912 | 0.5573
101.33 kPa, x1 = 0.1727 | 0.5608
101.33 kPa, x1 = 0.2562 | 0.5636
101.33 kPa, x1 = 0.3481 | 0.5661
101.33 kPa, x1 = 0.5471 | 0.5687
101.33 kPa, x1 = 0.6862 | 0.5638
101.33 kPa, x1 = 0.8428 | 0.5531
101.33 kPa, x1 = 0.9237 | 0.545

O=CC(Cl)(Cl)Cl + CCC(C)=O
viscosity [mPa·s], 101 kPa
Settings | x1 = 0.1183 | x1 = 0.2018 | x1 = 0.3006 | x1 = 0.3959 | x1 = 0.5007 | x1 = 0.5979 | x1 = 0.6814 | x1 = 0.7599 | x1 = 0.847
298.15 K | 0.5125 | 0.5629 | 0.6247 | 0.6758 | 0.7457 | 0.8097 | 0.8541 | 0.8952 | 0.9503
323.15 K | 0.3989 | 0.4323 | 0.4784 | 0.5132 | 0.5619 | 0.6053 | 0.6241 | 0.6588 | 0.7035

CC(=O)OCc1ccccc1 + Cc1ccccc1C
viscosity [mPa·s], 101 kPa
Settings | x1 = 0.0897 | x1 = 0.1695 | x1 = 0.2706 | x1 = 0.3684 | x1 = 0.4671 | x1 = 0.562 | x1 = 0.6623 | x1 = 0.7598 | x1 = 0.8617 | x1 = 0.9299
303.15 K | 0.751 | 0.802 | 0.873 | 0.957 | 1.047 | 1.142 | 1.252 | 1.361 | 1.478 | 1.563
313.15 K | 0.671 | 0.72 | 0.783 | 0.845 | 0.909 | 0.976 | 1.054 | 1.135 | 1.224 | 1.285

CC(=O)OCc1ccccc1 + CCCCCO
viscosity [mPa·s], 101.33 kPa
Settings | x1 = 0.1074 | x1 = 0.2083 | x1 = 0.2988 | x1 = 0.4051 | x1 = 0.5012 | x1 = 0.6057 | x1 = 0.7115 | x1 = 0.8097 | x1 = 0.9004
293.15 K | 3.865 | 3.649 | 3.465 | 3.261 | 3.087 | 2.909 | 2.738 | 2.589 | 2.459
303.15 K | 2.789 | 2.661 | 2.551 | 2.427 | 2.321 | 2.21 | 2.103 | 2.009 | 1.926
313.15 K | 2.194 | 2.1 | 2.018 | 1.927 | 1.848 | 1.766 | 1.686 | 1.616 | 1.553
323.15 K | 1.296 | 1.288 | 1.281 | 1.274 | 1.266 | 1.259 | 1.251 | 1.244 | 1.237

O=C(O)CCl + C[N+](C)(C)CCO.[Cl-]
101 kPa, x2 = 0.333
Settings | viscosity [mPa·s]
293.15 K | 161
298.15 K | 117.9
303.15 K | 88.59
308.15 K | 68.11
313.15 K | 53.44
318.15 K | 42.65
323.15 K | 34.65

OCC(F)(F)C(F)(F)F + O
viscosity [mPa·s], 100 kPa
Settings | x1 = 0.5504 | x1 = 0.6564 | x1 = 0.7892 | x1 = 0.8991
298.15 K | 2.607 | 2.626 | 2.774 | 3.069
323.15 K | 1.263 | 1.278 | 1.318 | 1.401

CCOCCOCC + COCCOCCO
viscosity [mPa·s], 101.33 kPa
Settings | 298.15 K | 308.15 K
x1 = 0.0146 | 3.47 | 2.55
x2 = 0.0162 | 0.621 | 0.538
x2 = 0.0416 | 0.646 | 0.559
x2 = 0.0613 | 0.664 | 0.574
x2 = 0.0967 | 0.703 | 0.6
x2 = 0.1691 | 0.779 | 0.666
x2 = 0.2291 | 0.85 | 0.718
x2 = 0.2741 | 0.916 | 0.765
x2 = 0.3082 | 0.964 | 0.809
x2 = 0.344 | 1.014 | 0.849
x2 = 0.4006 | 1.115 | 0.929
x2 = 0.4593 | 1.232 | 1.017
x2 = 0.5082 | 1.346 | 1.097
x2 = 0.5635 | 1.492 | 1.203
x2 = 0.6145 | 1.65 | 1.306
x2 = 0.6552 | 1.793 | 1.423
x2 = 0.6969 | 1.949 | 1.503
x2 = 0.7526 | 2.186 | 1.654
x2 = 0.8075 | 2.441 | 1.823
x2 = 0.8567 | 2.699 | 1.995
x2 = 0.9074 | 2.985 | 2.19
x2 = 0.9515 | 3.253 | 2.386

ClC(Cl)Cl + CCCCO
viscosity [mPa·s], 303.15 K
Settings | 101 kPa | 101.3 kPa
x2 = 0.0563 | 0.5315 | 0.5315
x2 = 0.0995 | 0.5491 | 0.5491
x2 = 0.1395 | 0.5709 | 0.5709
x2 = 0.1858 | 0.6001 | 0.6001
x2 = 0.2305 | 0.6329 | 0.6329
x2 = 0.2878 | 0.6839 | 0.6839
x2 = 0.301 | 0.6958 | 0.6958
x2 = 0.3666 | 0.7663 | 0.7663
x2 = 0.4891 | 0.9373 | 0.9373
x2 = 0.5662 | 1.076 | 1.076
x2 = 0.6718 | 1.314 | 1.314
x2 = 0.7659 | 1.574 | 1.574
x2 = 0.8333 | 1.78 | 1.78
x2 = 0.9386 | 2.107 | 2.107

ClC(Cl)Cl + CCO
Settings | viscosity [mPa·s]
303 K, 101.3 kPa, x1 = 0.1074 | 0.9539
303 K, 101.3 kPa, x1 = 0.2992 | 0.8095
303 K, 101.3 kPa, x1 = 0.5029 | 0.6591
303 K, 101.3 kPa, x1 = 0.6978 | 0.5679
303 K, 101.3 kPa, x1 = 0.9003 | 0.5256
303.15 K, 101 kPa, x2 = 0.0811 | 0.514
303.15 K, 101 kPa, x2 = 0.1571 | 0.5247
303.15 K, 101 kPa, x2 = 0.2368 | 0.544
303.15 K, 101 kPa, x2 = 0.3342 | 0.5774
303.15 K, 101 kPa, x2 = 0.4545 | 0.6351
303.15 K, 101 kPa, x2 = 0.5514 | 0.697
303.15 K, 101 kPa, x2 = 0.6372 | 0.7617
303.15 K, 101 kPa, x2 = 0.7644 | 0.8683
303.15 K, 101 kPa, x2 = 0.7943 | 0.8927
303.15 K, 101 kPa, x2 = 0.8607 | 0.9412
303.15 K, 101 kPa, x2 = 0.9211 | 0.9752
303.15 K, 101.3 kPa, x2 = 0.186 | 0.514
303.15 K, 101.3 kPa, x2 = 0.3257 | 0.5247
303.15 K, 101.3 kPa, x2 = 0.4457 | 0.544
303.15 K, 101.3 kPa, x2 = 0.5653 | 0.5774
303.15 K, 101.3 kPa, x2 = 0.6834 | 0.6351
303.15 K, 101.3 kPa, x2 = 0.761 | 0.697
303.15 K, 101.3 kPa, x2 = 0.8198 | 0.7617
303.15 K, 101.3 kPa, x2 = 0.8937 | 0.8683
303.15 K, 101.3 kPa, x2 = 0.9091 | 0.8927
303.15 K, 101.3 kPa, x2 = 0.9412 | 0.9412
303.15 K, 101.3 kPa, x2 = 0.968 | 0.9752
311 K, 101.3 kPa, x1 = 0.1074 | 0.8217
311 K, 101.3 kPa, x1 = 0.2992 | 0.7021
311 K, 101.3 kPa, x1 = 0.5029 | 0.5849
311 K, 101.3 kPa, x1 = 0.6978 | 0.5169
311 K, 101.3 kPa, x1 = 0.9003 | 0.4864
319 K, 101.3 kPa, x1 = 0.1074 | 0.7107
319 K, 101.3 kPa, x1 = 0.2892 | 0.6097
319 K, 101.3 kPa, x1 = 0.5029 | 0.5234
319 K, 101.3 kPa, x1 = 0.6978 | 0.4922
319 K, 101.3 kPa, x1 = 0.9003 | 0.4517
